Test results reported in ChEMBL document CHEMBL2448811, “Comparison of the accuracy of experimental and predicted pKa values of basic and acidic compounds” (Pharm Res, 2013).

Test: physchem

pKa	Structure (SMILES)
4.87	Nc1ccc(C(=O)O)cc1 [AMINOBENZOIC ACID]
3.65	CCCCCCCCCC(=O)OC(CC(=O)[O-])C[N+](C)(C)C (stereo not given)
3.6	CCCCCCCC(=O)OC(CC(=O)[O-])C[N+](C)(C)C (stereo not given)
10.3	Cc1ncc(CO)c(CN)c1O [PYRIDOXAMINE]

Structure (SMILES)	pKa
CN(C)[C@@H]1C(=O)C(C(N)=O)=C(O)[C@@]2(O)C(O)=C3C(=O)c4c(O)cccc4[C@@](C)(O)C3[C@H](O)C12 (stereo not given in full)	7.32
